The source of these data is US8569000B2, “Immunoassays using antibodies specific to carbamazepine” (priority 2011, dated 2013).

In this assay the test system is antibody specific to carbamazepine. The experiment in a line: Interference from other drugs in the carbamazepine ELISA assay. The class given is binding, rabbit. Particulars: chemical tested at 10.0 μg/ml; procedures of Example 4 (ELISA); duplicate. The text has this:
The Carbamazepine ELISA was developed with the antibody generated from Example 3. This assay is a competitive micro-immunoassay for determination of carbamazepine in a fluid sample. Carbamazepine in the fluid sample and carbamazepine derivative linked with the enzyme (HRP)-conjugate compete for the finite sites of the antibody coated on the solid surface of the microwell. If little or no carbamazepine is present in the fluid sample, more enzyme labeled carbamazepine derivative will bind to the antibody on the solid surface. Conversely, if a large or a significant amount of carbamazepine is present in the fluid sample, less enzyme labeled carbamazepine derivative will bind to the antibody, producing less color signal. The absorbance produced is inversely proportional to the amount of carbamazepine in the fluid sample.
Interference from other drugs was tested using 30 frequently used chemicals and medicines, at concentrations of 10.0 μg/ml.
The samples were tested in duplicate, following the procedures used in Example 4. All 30 samples produced a negative test result. Thus, the immunoassay of the present disclosure is specific to carbamazepine.
For orientation: In an ELISA, binding on a coated surface is turned into a signal by an enzyme label.
In the case of `CN[C@@H](C)[C@H](O)c1ccccc1` [(L)-Ephedrine], the “Equivalent Carbamazepine Conc.” value is under 0.1 µg/mL. For `CN1C(=O)CC[C@H]1c1cccnc1` [(−)-Cotinine], the “Equivalent Carbamazepine Conc.” value is under 0.1 µg/mL. For `CC(=O)Oc1ccccc1C(=O)O` [Acetylsalicylic Acid], the “Equivalent Carbamazepine Conc.” value is under 0.1 µg/mL. Next, `CCC1(CCC(C)C)C(=O)NC(=O)NC1=O` [Amobarbital]: under 0.1 µg/mL; `CC1(C)S[C@@H]2[C@H](NC(=O)[C@H](N)c3ccccc3)C(=O)N2[C@H]1C(=O)O` [Ampicillin]: under 0.1 µg/mL. Take `Cn1c(=O)c2c(ncn2C)n(C)c1=O` [Caffeine]: the “Equivalent Carbamazepine Conc.” value was under 0.1 µg/mL.

For the compound `CN(C)CCCN1c2ccccc2Sc2ccc(Cl)cc21` [Chlorpromazine], the “Equivalent Carbamazepine Conc.” value was under 0.1 µg/mL. To `O=C(O)C1N=C(c2ccccc2)c2cc(Cl)ccc2NC1=O` (centres unmarked) [Clorazepate] belongs under 0.1 µg/mL; to `CN1C(=O)CN=C(c2ccccc2)c2cc(Cl)ccc21` [Diazepam], under 0.1 µg/mL; to `COC(=O)[C@@H]1[C@H]2CC[C@@H](C[C@@H]1O)N2C` [Ecgonine Methyl Ester], under 0.1 µg/mL. To `CC(C(=O)O)c1cccc(Oc2ccccc2)c1` (centres unmarked) [Fenoprofen] belongs under 0.1 µg/mL; to `Cc1ccc(C)c(OCCCC(C)(C)C(=O)O)c1` [Gemfibrozil], under 0.1 µg/mL. As to `O=C(O)c1cc(O)ccc1O` [Gentisic Acid], the “Equivalent Carbamazepine Conc.” value was under 0.1 µg/mL. To `COc1ccc2c3c1O[C@H]1C(=O)CC[C@H]4[C@@H](C2)N(C)CC[C@]314` [Hydrocodone] belongs under 0.1 µg/mL; to `CC(C)Cc1ccc(C(C)C(=O)O)cc1` (centres unmarked) [Ibuprofen], under 0.1 µg/mL.

Turning to `CN(C)CCCN1c2ccccc2CCc2ccccc21` [Imipramine], the “Equivalent Carbamazepine Conc.” value was under 0.1 µg/mL. Take `CCN(CC)CC(=O)Nc1c(C)cccc1C` [Lidocaine]: the “Equivalent Carbamazepine Conc.” value was under 0.1 µg/mL. To `COc1ccc2cc([C@H](C)C(=O)O)ccc2c1` [Naproxen] belongs under 0.1 µg/mL. To `NC(=O)c1cccnc1` [Niacinamide] belongs under 0.1 µg/mL; to `CNC[C@H](O)c1cccc(O)c1` [Phenylephrine], under 0.1 µg/mL. To `CC(N)C(O)c1ccccc1` (centres unmarked) [Phenylpropanolamine] belongs under 0.1 µg/mL; to `CCN(CC)CCNC(=O)c1ccc(N)cc1` [Procainamide], under 0.1 µg/mL. On to `CCN(CC)CCOC(=O)c1ccc(N)cc1` [Procaine], for which the “Equivalent Carbamazepine Conc.” value was under 0.1 µg/mL.

For the compound `C=C[C@H]1C[N@@]2CC[C@H]1C[C@@H]2[C@@H](O)c1ccnc2ccc(OC)cc12` [Quinidine], the “Equivalent Carbamazepine Conc.” value is under 0.1 µg/mL. Regarding `Cc1cc(CC(=O)O)n(C)c1C(=O)c1ccc(Cl)cc1` [Zomepirac], the “Equivalent Carbamazepine Conc.” value was under 0.1 µg/mL. Next, `NCCc1ccccc1` [beta-Phenylethylamine]: under 0.1 µg/mL; `CN[C@@H](C)Cc1ccccc1` [d-Methamphetamine]: under 0.1 µg/mL; Ecgonine: under 0.1 µg/mL. For Penicillin, the “Equivalent Carbamazepine Conc.” value was under 0.1 µg/mL.
